Results taken from patent US20100184704A1, “USE OF THE PEPTIDE GLY-ARG-GLY-ASP-ASN-PRO AS A THERAPEUTIC AGENT” (priority 2007, published 2010).
Where a SMILES comes first, the peptide text is derived from it.

Tested on: drug-resistant Mycobacterium tuberculosis
Details: 5 micrograms per ml

SMILES: N=C(N)NCCC[C@H](NC(=O)CN)C(=O)NCC(=O)N[C@@H](CC(=O)O)C(=O)N[C@@H](CC(N)=O)C(=O)N1CCC[C@H]1C(=O)O [Gly-Arg-Gly-Asp-Asn-Pro, Gly-Arg-Gly-Asp-Asn-Pro-OH] (H-GRGDNP-OH)
- % inhibition: 0.0%
